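Five compound concentrations were applied to cells in 96-well plates for 48 hours; endpoints were derived by simple linear interpolation of the resulting dose-response curve. GI50 marks 50% less growth.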 The source made the active and inactive calls. Rule as the data show it: active = GI50 up to about 1.1 µM and inactive = higher.
Columns and labels:
Test in all cases: NCI tumour cell line growth inhibition, 48 h
[1] = tested on: EKVX
[2] = tested on: SF-295
[3] = tested on: SR
[4] = tested on: SNB-19
[5] = tested on: M19-MEL
[6] = tested on: Malme-3M
[7] = tested on: NCI-H522
[8] = tested on: UACC-257
[9] = tested on: OVCAR-8
[10] = tested on: SK-MEL-2
[11] = tested on: SNB-78
[12] = tested on: RPMI-8226
[13] = tested on: DLD-1
[14] = tested on: SK-MEL-5
[15] = tested on: SF-539
[16] = tested on: A498
[17] = tested on: RXF 393
[18] = tested on: SK-MEL-28
[19] = tested on: SNB-75
[20] = tested on: U-251
[21] = tested on: HCC 2998
[22] = tested on: IGROV-1
[23] = tested on: CCRF-CEM
[24] = tested on: A549
[25] = tested on: UO-31
[26] = tested on: DMS-114
[27] = tested on: CAKI-1
[28] = tested on: UACC-62
[29] = tested on: KM-20L2
[30] = tested on: OVCAR-5
[31] = tested on: SF-268
[32] = tested on: HOP-92
[33] = tested on: OVCAR-3
[34] = tested on: HOP-62
[35] = tested on: NCI-H23
[36] = tested on: K562
[37] = tested on: SN12C
[38] = tested on: MOLT-4
[39] = tested on: NCI-H226
[40] = tested on: TK-10
[41] = tested on: KM12
[42] = tested on: NCI-H460
[43] = tested on: SW-620
[44] = tested on: ACHN
[45] = tested on: 786-0
[46] = tested on: COLO 205
[47] = tested on: DMS-273
[48] = tested on: HT-29
[49] = tested on: HCT-15
[50] = tested on: HCT-116
[51] = tested on: LXFL 529
[52] = tested on: SK-OV-3
[53] = tested on: OVCAR-4
[54] = tested on: HOP-18
[55] = tested on: LOX IMVI
[56] = tested on: HL-60
[57] = tested on: M14
[58] = tested on: XF498

SMILES: O=C(CCN1CCC(CCO)CC1)Nc1ccc2c(c1)C(=O)c1ccc(NC(=O)CCN3CCC(CCO)CC3)cc1C2=O
- GI50 [1]: 32.5 µM (inactive)
- GI50 [2]: > 100 µM (inactive)
- GI50 [3]: 7.69 µM (inactive)
- GI50 [4]: 16.9 µM (inactive)
- GI50 [5]: 97.5 µM (inactive)
- GI50 [6]: 11 µM (inactive)
- GI50 [7]: 11.8 µM (inactive)
- GI50 [8]: 19.5 µM (inactive)
- GI50 [9]: 9.89 µM (inactive)
- GI50 [10]: 3.76 µM (inactive)
- GI50 [11]: 3.43 µM (inactive)
- GI50 [12]: 25.9 µM (inactive)
- GI50 [13]: 10.4 µM (inactive)
- GI50 [14]: 19.4 µM (inactive)
- GI50 [15]: 6.28 µM (inactive)
- GI50 [16]: 19.9 µM (inactive)
- GI50 [17]: 30.1 µM (inactive)
- GI50 [18]: 26.1 µM (inactive)
- GI50 [19]: 20.2 µM (inactive)
- GI50 [20]: 9.1 µM (inactive)
- GI50 [21]: 14.4 µM (inactive)
- GI50 [22]: 24.7 µM (inactive)
- GI50 [23]: 4.22 µM (inactive)
- GI50 [24]: 37.7 µM (inactive)
- GI50 [25]: 34.4 µM (inactive)
- GI50 [26]: 6.53 µM (inactive)
- GI50 [27]: 34.8 µM (inactive)
- GI50 [28]: 9.04 µM (inactive)
- GI50 [29]: 27.9 µM (inactive)
- GI50 [30]: > 100 µM (inactive)
- GI50 [31]: 11.3 µM (inactive)
- GI50 [32]: 29.8 µM (inactive)
- GI50 [33]: 5.53 µM (inactive)
- GI50 [34]: 17.3 µM (inactive)
- GI50 [35]: 26.5 µM (inactive)
- GI50 [36]: 8.05 µM (inactive)
- GI50 [37]: 16.5 µM (inactive)
- GI50 [38]: 4.13 µM (inactive)
- GI50 [39]: 4.86 µM (inactive)
- GI50 [40]: 24.7 µM (inactive)
- GI50 [41]: 2.69 µM (inactive)
- GI50 [42]: 3.94 µM (inactive)
- GI50 [43]: 4.79 µM (inactive)
- GI50 [44]: 41.9 µM (inactive)
- GI50 [45]: 6.7 µM (inactive)
- GI50 [46]: 10.7 µM (inactive)
- GI50 [47]: 6.81 µM (inactive)
- GI50 [48]: 13.5 µM (inactive)
- GI50 [49]: 27.7 µM
- GI50 [50]: 9.46 µM (inactive)
- GI50 [51]: 5.25 µM (inactive)
- GI50 [52]: 7.96 µM (inactive)
- GI50 [53]: 12.5 µM (inactive)
- GI50 [54]: 25.5 µM (inactive)
- GI50 [55]: 8.39 µM (inactive)
- GI50 [56]: 24.6 µM (inactive)

SMILES: c1cnn(CN(Cn2cccn2)Cn2cccn2)c1
- GI50 [1]: > 100 µM (inactive)
- GI50 [2]: > 100 µM (inactive)
- GI50 [3]: > 100 µM (inactive)
- GI50 [4]: > 100 µM (inactive)
- GI50 [5]: > 100 µM (inactive)
- GI50 [7]: > 100 µM (inactive)
- GI50 [8]: > 100 µM (inactive)
- GI50 [9]: > 100 µM (inactive)
- GI50 [10]: > 100 µM (inactive)
- GI50 [11]: > 100 µM (inactive)
- GI50 [12]: 35.5 µM (inactive)
- GI50 [13]: > 100 µM (inactive)
- GI50 [14]: > 100 µM (inactive)
- GI50 [57]: > 100 µM (inactive)
- GI50 [15]: > 100 µM (inactive)
- GI50 [16]: > 100 µM (inactive)
- GI50 [17]: > 100 µM (inactive)
- GI50 [18]: > 100 µM (inactive)
- GI50 [19]: > 100 µM (inactive)
- GI50 [20]: > 100 µM (inactive)
- GI50 [23]: > 100 µM (inactive)
- GI50 [24]: > 100 µM (inactive)
- GI50 [25]: > 100 µM (inactive)
- GI50 [26]: > 100 µM (inactive)
- GI50 [27]: > 100 µM (inactive)
- GI50 [28]: 35.9 µM (inactive)
- GI50 [29]: > 100 µM (inactive)
- GI50 [31]: > 100 µM (inactive)
- GI50 [32]: > 100 µM (inactive)
- GI50 [58]: > 100 µM (inactive)
- GI50 [33]: > 100 µM (inactive)
- GI50 [34]: > 100 µM (inactive)
- GI50 [35]: > 100 µM (inactive)
- GI50 [36]: > 100 µM (inactive)
- GI50 [37]: > 100 µM (inactive)
- GI50 [38]: > 100 µM (inactive)
- GI50 [40]: > 100 µM (inactive)
- GI50 [41]: > 100 µM (inactive)
- GI50 [42]: > 100 µM (inactive)
- GI50 [43]: > 100 µM (inactive)
- GI50 [44]: > 100 µM (inactive)
- GI50 [45]: > 100 µM (inactive)
- GI50 [46]: > 100 µM (inactive)
- GI50 [47]: > 100 µM (inactive)
- GI50 [49]: > 100 µM
- GI50 [50]: > 100 µM (inactive)
- GI50 [52]: > 100 µM (inactive)
- GI50 [53]: > 100 µM (inactive)
- GI50 [55]: > 100 µM (inactive)
- GI50 [56]: > 100 µM (inactive)

SMILES: Cc1cc2c(cc1O)[nH]c1cc3c(cc12)C=CC(C)(C)O3
- GI50 [4]: > 25 µM (inactive)
- GI50 [9]: 4.55 µM (inactive)
- GI50 [10]: > 25 µM (inactive)
- GI50 [11]: 11.3 µM (inactive)
- GI50 [12]: 9.1 µM (inactive)
- GI50 [26]: 10.6 µM (inactive)
- GI50 [30]: 17.7 µM (inactive)
- GI50 [58]: > 25 µM (inactive)
- GI50 [33]: 7.28 µM (inactive)
- GI50 [36]: > 25 µM (inactive)
- GI50 [40]: > 25 µM (inactive)
- GI50 [46]: > 25 µM (inactive)
- GI50 [52]: > 25 µM (inactive)
- GI50 [53]: 10.5 µM (inactive)

From ChEMBL document CHEMBL1201862, “PubChem BioAssay data set” (2004)
